Measurements: US20220117938A1, “COMBINATON THERAPY WITH A DON PRODRUG AND AN IMMUNE CHECKPOINT INHIBITOR” (DRACEN PHARMACEUTICALS, INC., priority 2019, published 2022)

Tested on: Ninety four (94) cell lines and PBMC
Assay: Cell viability assay, SRB staining, 94 cell lines and PBMC (Example 7, Experiment 2)
Assay type: cell-based
Method: Ninety four (94) cell lines were seeded at a density varying from 500 to 7000 cells/well depending on their growth characteristics. PBMC were seeded at the density 50,000-100,000 cells/well. Cells were incubated for 48 h prior to compound treatment. Compound 1 and DON were evaluated at a concertation range of 1 nM up to 100 μM. Compound 1 dilutions in DMSO and DON dilutions in PBS were performed in 96-well 0.5 mL plates (Greiner Bio-One, Germany). Compounds were then diluted 1:100 in RPMI medium. […] of cells were treated by mixing with 10 μL of the compound-containing media (resulting in a final DMSO concentration of 0.1%). The cells were allowed to grow at 37° C. for 120 h. Cells were fixed to the surface by addition of 10% TCA (for adherent growing cells) or 50% TCA (for semi-adherent growing cells or cells growing in suspension). After an hour of incubation at 4° C., plates were washed twice with 400 μL of deionized water and dried. Cells were then stained with 100 μL of 0.04% wt/v SRB. The plates were incubated at room temperature for at least 30 min and washed six times with 1% acetic acid to remove unbound stain. The plates were left to dry at room temperature and bound SRB was solubilized with 100 μL of 10 mM Tris base. Optical density was measured at 492, 520 and 560 nm using a Deelux-LED96 plate reader (Deelux Labortechnik GmbH, Germany).
Cell lines were purchased directly from the ATCC, NCI, CLS, and DSMZ cell line collections. A master bank and working aliquots were prepared. Cells used for the study had undergone less than 20 passages. To rule out potential contamination or wrong assignment, all cell lines were tested by STR analysis. Absence of mycoplasma contamination was confirmed for all cell lines used in the studies.
The cell lines were grown in the media recommended by the suppliers in the presence of 100 U/mL penicillin and 100 μg/mL streptomycin supplied with 10% FCS (PAA, Germany). RPMI 1640, DMEM, and MEM Earle's medium were from PAA (Coelbe, Germany), supplements 2 mM L-glutamine, 1 mM Na-pyruvate and 1% NEAA were from PAA (Coelbe, Germany), 2.5% horse serum, hydrocortisone, transferin, beta-estradiol, selenite and 1 U/mL insulin from Sigma-Aldrich (Munich, Germany). RPMI medium was used for culturing the following cell lines: 5637, 22RV1, 7860, A2780, A431, A549, ACHN, ASPC1, BT20, BXPC3, CAKI1, CLS439, COLO205, COLO678, DLD1, DU145, EFO21, EJ28, HCT15, HS578T, IGROV1, JAR, LOVO, MCF7, MDA MB231, MDA MB435, MDA MB436, MDA MB468, MHHES1, MT3, NCI H292, NCI H358M, NCI H460, NCIH82, OVCAR3, OVCAR4, PANC 1005 (addition of insulin), PBMC, PC3, RDES, SF268, SF295, SKBR3, SK MEL28, SKMEL5, SKOV3, SW620, U2OS, UMUC3, and U031.
DMEM medium was used to culture A204, A375, A673, C33A, CASKI, HCT116, HEPG2, HS729, HT29, J82, MG63, MIAPACA2 (addition of horse serum), PANC1, PLCPRF5, RD, SAOS2, SKLMS1, SKNAS, SNB75, T24, and TE671.
MEM Earle's medium was used for CACO2, CALU6, HEK293, HELA, HT1080, IMR90, JEG3, JIMT1, SKHEP1, SKNSH, and U87MG. Cell seeding conditions were optimized for each cell line. The cell seeding density varied from 500 to 7000 cells/well depending on their growth characteristics. Peripheral blood mononuclear cells (PBMC) were freshly isolated from whole blood of an anonymous donor through density gradient centrifugation using Ficoll solution (d=1.077). In short, blood was diluted 1:1 with PBS and carefully placed on the Ficoll. After centrifugation 1000×g for 15 min (braking rate 0), the ring containing mainly leucocytes was collected in PBS followed by three times washing with PBS to reduce the platelets. PBMC were seeded at the density 50,000-100,000 cells/well. Cells were grown in 5% CO2 atmosphere in a NB-203XXL incubator (N-BIOTEK Inc., Korea).
Ninety-four cell lines were tested in parallel. Cell growth and treatment were performed in 96 well microtitre plates CELLSTAR® (Greiner Bio-One, Germany). […]

[1] = Homo sapiens, MDA-MB-468, MDAMB468, breast
[2] = Homo sapiens, MG-63, MG63, bone
[3] = Homo sapiens, MHH-ES-1, MHHES1, bone
[4] = Homo sapiens, MIA PaCa-2, MIAPACA2, pancreas
[5] = Homo sapiens, MINO, hematological
[6] = Homo sapiens, MV4-11, MV4-11, hematological
[7] = Homo sapiens, NCI-H460, NCIH460, lung
[8] = Homo sapiens, OVCAR-3, OVCAR3, ovary
[9] = Homo sapiens, OVCAR-4, OVCAR4, ovary
[10] = Homo sapiens, PANC-1, PANC1, pancreas
[11] = Homo sapiens, PLC-PRF-5, PLCPRF5, liver
[12] = Homo sapiens, Panc1005, PANC1005, pancreas
[13] = Homo sapiens, SAOS-2, SAOS2, bone
[14] = Homo sapiens, SF-268, SF268, brain
[15] = Homo sapiens, SF-295, SF295, brain
[16] = Homo sapiens, SK-BR-3, SKBR3, breast
[17] = Homo sapiens, SK-HEP1, SKHEP1, liver
[18] = Homo sapiens, SK-LMS-1, SKLMS1, uterus
[19] = Homo sapiens, SK-MEL-5, SKMEL5, skin
[20] = Homo sapiens, SK-MEL-28, SKMEL28, skin
[21] = Homo sapiens, SK-N-AS, SKNAS, brain
[22] = Homo sapiens, SK-N-SH, SKNSH, brain
[23] = Homo sapiens, SK-OV-3, SKOV3, ovary
[24] = Homo sapiens, SNB-75, SNB75, brain
[25] = Homo sapiens, SU-DHL-6, SU-DHL-6, hematological
[26] = Homo sapiens, SW-620, SW620, colon
[27] = Homo sapiens, TE-671, TE671, muscle
[28] = Homo sapiens, THP-1, THP-1, hematological
[29] = Homo sapiens, U-87 MG, U87MG, brain
[30] = Homo sapiens, UMUC3, UMUC3, bladder
[31] = Homo sapiens, UO-31, UO31, kidney
[32] = Homo sapiens, WSU-NHL, hematological

What does the source list for CC(=O)N[C@@H](Cc1c[nH]c2ccccc12)C(=O)N[C@@H](CCC(=O)C=[N+]=[N-])C(=O)OC(C)C [Compound 1, Isopropyl (S)-2-((S)-2-acetamido-3-(1H-indol-3-yl)propanamido)-6-diazo-5-oxohexanoate]?
GI50 [1]: 0.531 µM; IC50 [1]: 0.789 µM; GI50 [2]: 4.6 µM; IC50 [2]: 5.38 µM; GI50 [3]: 6.19 µM; IC50 [3]: 6.34 µM; GI50 [4]: 3.29 µM; IC50 [4]: 3.56 µM; GI50 [5]: 0.61 µM; IC50 [5]: 0.798 µM; GI50 [6]: 0.976 µM; IC50 [6]: 1.03 µM; GI50 (Homo sapiens, NCI-H292, NCIH292, lung): 14.5 µM; GI50 [7]: 4.74 µM; IC50 [7]: 5.01 µM; GI50 [8]: 1.65 µM; IC50 [8]: 4.06 µM; GI50 [9]: 0.812 µM; IC50 [9]: 1.67 µM; GI50 [10]: 7.98 µM; IC50 [10]: 8.46 µM; GI50 [11]: 6.15 µM; IC50 [11]: 7.45 µM; GI50 [12]: 14.8 µM; IC50 [12]: 28.9 µM; GI50 (Homo sapiens, Ramos, hematological): 6.63 µM; GI50 [13]: 2.8 µM; IC50 [13]: 20.8 µM; GI50 [14]: 7.37 µM; IC50 [14]: 9.53 µM; GI50 [15]: 9.73 µM; IC50 [15]: 10.9 µM; GI50 [16]: 2.65 µM; IC50 [16]: 3.91 µM; GI50 [17]: 3.93 µM; IC50 [17]: 5.12 µM; GI50 [18]: 1.34 µM; IC50 [18]: 2.15 µM; GI50 [19]: 2.05 µM; IC50 [19]: 2.9 µM; GI50 [20]: 1.23 µM; IC50 [20]: 1.61 µM; GI50 [21]: 7.62 µM; IC50 [21]: 18.6 µM; GI50 [22]: 8.18 µM; IC50 [22]: 9.15 µM; GI50 [23]: 1.26 µM; IC50 [23]: 3.81 µM; GI50 [24]: 18.4 µM; IC50 [24]: 40 µM; GI50 (Homo sapiens, SU-DHL10, SU-DHL-10, hematological): 4.18 µM; GI50 [25]: 0.971 µM; IC50 [25]: 1.13 µM; GI50 [26]: 7.96 µM; IC50 [26]: 8.58 µM; GI50 [27]: 5.44 µM; IC50 [27]: 5.97 µM; GI50 [28]: 1.99 µM; IC50 [28]: 2.25 µM; GI50 (Homo sapiens, U2OS, bone): 10 µM; IC50 (Homo sapiens, U2OS, bone): 12.9 µM; GI50 [29]: 2.38 µM; IC50 [29]: 4.1 µM; GI50 [30]: 2.32 µM; IC50 [30]: 2.75 µM; GI50 [31]: 17.7 µM; IC50 [31]: 44.9 µM; GI50 [32]: 1.16 µM; IC50 [32]: 1.5 µM; IC50 (J82, bladder): 15.9 µM; IC50 (JAR, placenta): 2.41 µM; IC50 (MT3, breast): 1.46 µM; GI50 (NCI-H358M, NCIH358M, lung): 3.31 µM; IC50 (NCI-H358M, NCIH358M, lung): 8.92 µM; GI50 (PBMC, 5637, bladder): 2.15 µM; GI50 (PBMC, CLS439, bladder): 7.57 µM; GI50 (PBMC, HS729, muscle): 10.1 µM; GI50 (PBMC, J82, bladder): 14.2 µM; GI50 (PBMC, JAR, placenta): 2.23 µM; GI50 (PBMC, MT3, breast): 1.1 µM; GI50 (PBMC, PC3, prostate): 11.5 µM; GI50 (PBMC, RD, muscle): 4.05 µM; GI50 (PBMC, T24, bladder): 4.71 µM; IC50 (PC3, prostate): 17.9 µM; IC50 (RD, muscle): 5.44 µM; GI50 (RD-ES, RDES, bone): 3.95 µM; IC50 (RD-ES, RDES, bone): 5.48 µM; IC50 (T24, bladder): 4.95 µM
